{"source": "patent US4520031A", "about": "“Method for reducing toxic effects of methyl-glyoxal bis-guanylhydrazone” (priority 1982, dated 1985)", "key": {"[1]": {"test_system": "advanced malignant disease", "assay": "Response to weekly MGBG, all diagnoses (Table I)", "type": "in vivo, human", "method": "(§1) During the course of the clinical experiments, MGBG was administered to patients in approximately weekly doses ranging from 250 to 1000 mg per square meter.\n(§2) Pre-treatment minimum evaluation included chest roentgenogram, liver and renal function tests, complete blood count with differential and platelet count and serum glucose. Pre-treatment performance status was recorded for each patient in accordance with SWOG criteria.\n(§3) This intravenous infusion is administered to the patient over a period of time not less than 30 minutes. Accordingly, an approximation of the patient's surface area in square meters is calculated using a height and weight to surface area nomogram (listed in Documenta Geigy, Scientific Tables (1970) p. 537) and this factor is applied in determining the appropriate amount of MGBG salt to be added to the infusion solution. […] In the absence of toxicity, subsequent doses of MGBG are increased by 100 mg/m^2 over the previous week's dose. If patients experience moderate or severe reversible toxicity, the dose is reduced by 100 mg/m^2 relative to the previous week's dose. No change in dosage strength is made for mild toxicity."}, "Renal": {"test_system": "Renal", "assay": "Response to weekly MGBG, renal", "type": "in vivo, human", "method": "as §1, §2, §3"}, "Colon": {"test_system": "Colon", "assay": "Response to weekly MGBG, colon", "type": "in vivo, human", "settings": "14 evaluable patients", "method": "as §1, §2, §3"}, "Pancreas": {"test_system": "Pancreas", "assay": "Response to weekly MGBG, pancreas", "type": "in vivo, human", "settings": "5 evaluable patients", "method": "as §1, §2, §3"}, "Lung (non-small cell)": {"test_system": "Lung (non-small cell)", "assay": "Response to weekly MGBG, lung", "type": "in vivo, human", "settings": "6 evaluable patients", "method": "as §1, §2, §3"}, "[2]": {"test_system": "Adenocarcinoma (unknown primary)", "assay": "Response to weekly MGBG, adenocarcinoma", "type": "in vivo, human", "method": "as §1, §2, §3"}, "Breast": {"test_system": "Breast", "assay": "Response to weekly MGBG, breast", "type": "in vivo, human", "settings": "12 evaluable patients", "method": "as §1, §2, §3"}, "Hepatoma": {"test_system": "Hepatoma", "assay": "Response to weekly MGBG, hepatoma", "type": "in vivo, human", "settings": "1 evaluable patient", "method": "as §1, §2, §3"}, "Melanoma": {"test_system": "Melanoma", "assay": "Response to weekly MGBG, melanoma", "type": "in vivo, human", "settings": "1 evaluable patient", "method": "as §1, §2, §3"}, "Leukemia": {"test_system": "Leukemia", "assay": "Response to weekly MGBG, leukemia", "type": "in vivo, human", "settings": "1 mg/m^2 weekly for three weeks; 1 evaluable patient", "protocol": "**Patient received 1 mg/m^2 weekly for three weeks"}, "Ewings": {"test_system": "Ewings", "assay": "Response to weekly MGBG, Ewings", "type": "in vivo, human", "settings": "1 evaluable patient", "method": "as §1, §2, §3"}, "Oat Cell": {"test_system": "Oat Cell", "assay": "Response to weekly MGBG, oat cell", "type": "in vivo, human", "settings": "1 evaluable patient", "method": "as §1, §2, §3"}, "[3]": {"test_system": "acute myelocytic leukemia", "settings": "cited from earlier work"}, "spermidine biosynthesis": {"test_system": "spermidine biosynthesis", "settings": "in vitro; concentrations as low as; cited from earlier work"}, "[4]": {"settings": "over three weeks, 30240 min; cited from earlier work"}, "adenocarcinoma-755": {"test_system": "adenocarcinoma-755", "settings": "Freelander and French; cited from earlier work"}, "[5]": {"settings": "human subjects undergoing MGBG treatment; cited from earlier work"}, "DNA synthesis": {"test_system": "DNA synthesis", "settings": "reversed by exogenous spermidine; cited from earlier work"}, "protein synthesis": {"test_system": "protein synthesis", "settings": "in vitro; cited from earlier work"}, "[6]": {"settings": "cited from earlier work"}}, "note": "“Also recorded” adds a separate entry of the source. Like-named read-outs stand apart in the source and are kept apart here.", "data": [{"smiles": "CC(C=NNC(=N)N)=NNC(=N)N", "note": "[MGBG, 1,1'-[(methylethanediylidene)dinitrilo] diguanidine]", "values": [{"measurement": "biologic effect at 250 mg/m^2", "setting": "[1]; 12 patients, 250 mg/m^2", "value": "no apparent biologic effect"}, {"measurement": "response at 250 mg/m^2 weekly", "setting": "[1]; first twelve patients, 250 mg/m^2 weekly", "value": "no response"}, {"measurement": "CR (Complete response), total", "setting": "[1]; weekly, 65 evaluable patients", "value": 2}, {"measurement": "CR + PR, total", "setting": "[1]; weekly, 65 evaluable patients", "value": 11}, {"measurement": "IMP (Improvement noted), total", "setting": "[1]; weekly, 65 evaluable patients", "value": 9}, {"measurement": "No Response, total", "setting": "[1]; weekly, 65 evaluable patients", "value": 45}, {"measurement": "PR (Partial response), total", "setting": "[1]; weekly, 65 evaluable patients", "value": 9}, {"measurement": "antineoplastic activity in solid tumors", "setting": "[1]; weekly, colon, esophageal, renal cell, prostate, and breast carcinoma", "value": "effective"}, {"measurement": "CR + PR", "setting": "Renal; 5 evaluable patients", "value": 1}, {"measurement": "IMP (Improvement noted)", "setting": "Renal; 5 evaluable patients", "value": 2}, {"measurement": "No Response", "setting": "Renal; 5 evaluable patients", "value": 2}, {"measurement": "PR (Partial response)", "setting": "Renal; 5 evaluable patients", "value": 1}, {"measurement": "Duration Months", "setting": "Renal; duration of CR + PR", "value": 5, "unit": "Months"}, {"measurement": "CR + PR", "setting": "Colon", "value": 3}, {"measurement": "No Response", "setting": "Colon", "value": 11}, {"measurement": "PR (Partial response)", "setting": "Colon", "value": 3}, {"measurement": "CR + PR", "setting": "Pancreas", "value": 2}, {"measurement": "No Response", "setting": "Pancreas", "value": 3}, {"measurement": "PR (Partial response)", "setting": "Pancreas", "value": 2}, {"measurement": "CR + PR", "setting": "Lung (non-small cell)", "value": 2}, {"measurement": "No Response", "setting": "Lung (non-small cell)", "value": 4}, {"measurement": "PR (Partial response)", "setting": "Lung (non-small cell)", "value": 2}, {"measurement": "CR (Complete response)", "setting": "[2]; 3 evaluable patients", "value": 1}, {"measurement": "CR + PR", "setting": "[2]; 3 evaluable patients", "value": 1}, {"measurement": "IMP (Improvement noted)", "setting": "[2]; 3 evaluable patients", "value": 1}, {"measurement": "PR (Partial response)", "setting": "[2]; 3 evaluable patients", "value": 1}, {"measurement": "Duration Months", "setting": "[2]; duration of CR + PR", "value": 2, "unit": "Months"}, {"measurement": "IMP (Improvement noted)", "setting": "Breast", "value": 2}, {"measurement": "No Response", "setting": "Breast", "value": 10}, {"measurement": "No Response", "setting": "Hepatoma", "value": 1}, {"measurement": "IMP (Improvement noted)", "setting": "Melanoma", "value": 1}, {"measurement": "IMP (Improvement noted)", "setting": "Leukemia", "value": 1}, {"measurement": "No Response", "setting": "Ewings", "value": 1}, {"measurement": "IMP (Improvement noted)", "setting": "Oat Cell", "value": 1}, {"measurement": "remission rate (complete remissions)", "setting": "[3]; average daily parenteral dose of 126 to 160 mg/m^2, Levin et al.", "value": 45, "unit": "%"}, {"measurement": "activity in acute myelocytic leukemia", "setting": "[3]; daily dosing schedule", "value": "major activity"}, {"measurement": "median increase in survival", "setting": "[3]; from 2.5 months, compared to patients with myeloblastic leukemia treated with 6-mercaptopurine", "value": 6.5, "unit": "months"}, {"measurement": "concentration at which MGBG is a potent inhibitor of spermidine biosynthesis", "setting": "spermidine biosynthesis", "value": "≥ 0.5", "unit": "µg/mL"}, {"measurement": "administered intravenous dose excreted in the feces", "setting": "[4]", "value": "less than 20%"}, {"measurement": "administered intravenous dose excreted in the urine", "setting": "[4]", "value": 50, "unit": "%"}, {"measurement": "antitumor activity", "setting": "adenocarcinoma-755", "value": "antitumor activity"}, {"measurement": "toxic effects unique to man", "setting": "[5]", "value": "esophagitis, ulcerative pharyngitis, laryngitis, stomatitis, genital mucosa swelling, conjunctivitis, mucositis, erythema, edema, desquamating dermatitis, and profound anorexia with associated weight loss; also recorded: mucositis, vasculitis, and profound anorexia with associated weight loss"}, {"measurement": "MGBG-mediated depression of DNA synthesis, associated changes", "setting": "DNA synthesis", "value": "spermidine depletion and putrescine accumulation"}, {"measurement": "concentration with direct toxic effects, including inhibition of protein synthesis", "setting": "protein synthesis", "value": "≥ 30", "unit": "µg/mL"}, {"measurement": "Days to first Toxicity", "setting": "[6]; patient 1, 230 mg/m^2/day", "value": 16, "unit": "days"}, {"measurement": "Response", "setting": "[6]; patient 1, 230 mg/m^2/day", "value": "None"}, {"measurement": "Days to first Toxicity", "setting": "[6]; patient 2, 340 mg/m^2/day", "value": 7, "unit": "days"}, {"measurement": "Response", "setting": "[6]; patient 2, 340 mg/m^2/day", "value": "None"}, {"measurement": "Days to first Toxicity", "setting": "[6]; patient 3, 256 mg/m^2/day", "value": 9, "unit": "days"}, {"measurement": "Response", "setting": "[6]; patient 3, 256 mg/m^2/day", "value": "Partial"}, {"measurement": "Days to first Toxicity", "setting": "[6]; patient 4, 264 mg/m^2/day", "value": 7, "unit": "days"}, {"measurement": "Response", "setting": "[6]; patient 4, 264 mg/m^2/day", "value": "Complete"}, {"measurement": "Days to first Toxicity", "setting": "[6]; patient 5, 252 mg/m^2/day", "value": 10, "unit": "days"}, {"measurement": "Response", "setting": "[6]; patient 5, 252 mg/m^2/day", "value": "Complete"}, {"measurement": "Days to first Toxicity", "setting": "[6]; patient 6, 156 mg/m^2/day", "value": 10, "unit": "days"}, {"measurement": "Response", "setting": "[6]; patient 6, 156 mg/m^2/day", "value": "Complete"}, {"measurement": "Days to first Toxicity", "setting": "[6]; patient 7, 194 mg/m^2/day", "value": 6, "unit": "days"}, {"measurement": "Response", "setting": "[6]; patient 7, 194 mg/m^2/day", "value": "Complete"}, {"measurement": "Days to first Toxicity", "setting": "[6]; patient 8, 194 mg/m^2/day", "value": 7, "unit": "days"}, {"measurement": "Response", "setting": "[6]; patient 8, 194 mg/m^2/day", "value": "Complete"}, {"measurement": "Days to first Toxicity", "setting": "[6]; patient 9, 150 mg/m^2/day", "value": 23, "unit": "days"}, {"measurement": "Response", "setting": "[6]; patient 9, 150 mg/m^2/day", "value": "Partial"}, {"measurement": "Toxic Manifestation", "setting": "[6]; patient 9, 150 mg/m^2/day", "value": "None"}, {"measurement": "Days to first Toxicity", "setting": "[6]; patient 10, 150 mg/m^2/day", "value": 24, "unit": "days"}, {"measurement": "Response", "setting": "[6]; patient 10, 150 mg/m^2/day", "value": "Complete"}, {"measurement": "Toxic Manifestation", "setting": "[6]; patient 10, 150 mg/m^2/day", "value": "None"}, {"measurement": "Days to first Toxicity", "setting": "[6]; patient 11, 150 mg/m^2/day", "value": 15, "unit": "days"}, {"measurement": "Response", "setting": "[6]; patient 11, 150 mg/m^2/day", "value": "Complete"}, {"measurement": "Toxic Manifestation", "setting": "[6]; patient 11, 150 mg/m^2/day", "value": "None"}, {"measurement": "Days to first Toxicity", "setting": "[6]; patient 12, 150 mg/m^2/day", "value": 13, "unit": "days"}, {"measurement": "Response", "setting": "[6]; patient 12, 150 mg/m^2/day", "value": "Complete"}, {"measurement": "Days to first Toxicity", "setting": "[6]; patient 13, 150 mg/m^2/day", "value": 13, "unit": "days"}, {"measurement": "Response", "setting": "[6]; patient 13, 150 mg/m^2/day", "value": "Complete"}, {"measurement": "Toxic Manifestation", "setting": "[6]; patient 13, 150 mg/m^2/day", "value": "None"}]}]}
